In patent US10066208B2, “Kit and method for promoting mesenchymal stem cell differentiation” (priority 2014, dated 2018):

Columns and labels:
mesenchymal stem cell [1] = assay: Safranin-O staining of glycosaminoglycans, bioreactor culture; type: cell-based, Wistar rats; settings: tri-copolymer scaffold, kartogenin, 21 days
Text: Glycosaminoglycans (GAGs) were mainly the content of the extracellular matrix secreted by the chondrocyte.
The cells were distributed on the tri-copolymer scaffold at the beginning of culture. Red was for Safranin-O staining. The Safranin-O staining of the background was from the chondroitin-6-sulfate of the material itself which was one of the Glycosaminoglycans. […] After the cell culturing for 21 days, the cell mass was examined, of which size was about 100 μm.

mesenchymal stem cell [2] = assay: Live and death staining (Calcein-AM/PI) of mesenchymal stem cell in tri-copolymer scaffold, static culture; type: cell-based, Wistar rats; settings: 1.0 kartogenin, 7 days, vs control group
Procedure: (§1) The mesenchymal stem cells used in the present invention were in the third generation of subculture to ensure the maintenance of the cell morphology. The proliferated stem cells were dissociated by trpsin, collected and condensed to 10^7 cells/mL. 50 μL of the cell solution was seeded on each dry scaffold. The cells were divided into static culture group and bioreactor culture group. The former changed the medium every 2 to 3 days and in the latter, after cells seeding into the scaffold and culturing for one day, it was moved into the bioreactor.
After the combination of the gelatin-hyaluronan-chondroitin tri-copolymer with the mesenchymal stem cell, the differentiating effects under the 3-dimensional culture were confirmed. Through the live and death staining, the cell condensation during early differentiation stage was examined at the presence of 1.0 kartogenin. […] Apoptosis was the process during chondrogenic differentiation of stem cell.
The fluorescent staining of Calcein-AM and Propidium Iodide (PI) was used to examine the survival distribution of the cells in the scaffold. The former was lipophilic which could easily enter into the living cell and being hydrolyzed to produce fluorescent compounds, calcein, so that only the living cell could be stained with Calcin-AM. […] When PI bound to a DNA double helix, it emitted red fluorescence. […]

hMSC = settings: cited from earlier work
mesenchymal stem cell [3] = assay: Alcian Blue stain of mesenchymal stem cell condensation and glycosaminoglycan secretion, 2-dimensional plate culture; type: cell-based, Wistar rats; settings: 3 and 7 days, vs control without kartogenin
Text: The Isolation and Culture of the Mesenchymal Stem Cell • 1. The cell source was taken from the four limbs of two-week old Wistar rats. Rats were sacrificed and immersed in 75% alcohol. The operation process for taking four limbs was under half sterile environment. • 2. During the cellular collecting processes, sterilized equipments were used in the whole processes. Both tibia and femur of the lower limb were taken. The tip of the scissor was used to separate the bone and the muscle. The knee joints and the hip joints were taken down along the bones; the part near the ankle was difficult to remove completely, so a direct cut was made close to the ankle joints. Only the humerus in upper limb had enough amounts of cells, so just took humerus and the scapula was processed as ankle joints in having a direct cut. Finally the limbs were soaked and washed in phosphate buffer solution (PBS) with 10% antibiotics (penicillin 10,000/ml, streptomycin 10 mg/ml, amphotericin-B 0.025 mg/ml). • 3. The muscle on the limbs was clearly removed under solution, the protruding parts of the two ends were cut out and soaked into new PBS (containing 1% antibiotics). Cells were washed out by syringe filled with PBS. • 4. PBS containing cells was placed in centrifuge tubes and centrifugated at 2000 rpm for 5 minutes. The red blood cells were suspended cells which adhered to and flowed with the mesenchymal stem cell. […]

mesenchymal stem cell [4] = assay: DMMB quantification of glycosaminoglycans in the bioreactor medium; type: cell-based, Wistar rats; settings: tri-copolymer scaffold, kartogenin, day 7, 14 and 21
Procedure: 1,9-dimethylmethlene blue (DMMB) method was used for quantifying Glycosaminoglycans (GAGs). 16 mg of DMMB was dissolved in 5 mL of 95% ethanol and diluted with 3 mL of formic acid and 25.6 mL of NaOH. Double distilled water was used to adjust the final volume to 1 liter, and the solution was maintained at pH 3.5.
250 μL of the DMMB solutions were added into 40 μL of the diluted sample solutions which were from different time points. After reacted in the dark for 10 min, the absorbance of 520 nm was detected and then the GAGs concentration was determined by interpolated onto the standard curve calculated by the chondroitin-6-sulfate.
The GAGs concentrations in the medium were determined by the DMMB method through collecting samples from the bioreactor at different time points.

mesenchymal stem cell [5] = assay: Real-time PCR gene expression of mesenchymal stem cell, 2-dimensional plate culture; type: cell-based, Wistar rats
Text: The Isolation and Culture of the Mesenchymal Stem Cell • 1. The cell source was taken from the four limbs of two-week old Wistar rats. Rats were sacrificed and immersed in 75% alcohol. The operation process for taking four limbs was under half sterile environment. • 2. During the cellular collecting processes, sterilized equipments were used in the whole processes. Both tibia and femur of the lower limb were taken. The tip of the scissor was used to separate the bone and the muscle. The knee joints and the hip joints were taken down along the bones; the part near the ankle was difficult to remove completely, so a direct cut was made close to the ankle joints. Only the humerus in upper limb had enough amounts of cells, so just took humerus and the scapula was processed as ankle joints in having a direct cut. Finally the limbs were soaked and washed in phosphate buffer solution (PBS) with 10% antibiotics (penicillin 10,000/ml, streptomycin 10 mg/ml, amphotericin-B 0.025 mg/ml). • 3. The muscle on the limbs was clearly removed under solution, the protruding parts of the two ends were cut out and soaked into new PBS (containing 1% antibiotics). Cells were washed out by syringe filled with PBS. • 4. PBS containing cells was placed in centrifuge tubes and centrifugated at 2000 rpm for 5 minutes. The red blood cells were suspended cells which adhered to and flowed with the mesenchymal stem cell. The supernatant was carefully removed. • 5. Hank's Balanced Salt Solution (HBSS) was added into the centrifugated cells. After mixing up, 5 mL of HBSS mixed with cells was added into 5 mL of Ficoll separating solution and centrifugated at 18-20° C. at the speed 300 g for 40 minutes. • 6. After centrifugation, the supernatant was sucked out; large amount of PBS was added to dilute the Ficoll separating solution and washed for 2-3 times. • 7. Medium was added into the centrifugated cells and mixed up for culturing. Dulbecco's Modified Eagle Medium (DMEM) with 10% fetal bovine serum (FBS) was used for the stem cell medium in this example. • 8. After the cells attached, the medium was changed every 2-3 days. When the cells was fully confluent, subcultured as the proportion of one to three or one to four.
(§2) The gene expression of the mesenchymal stem cell was examined by Real-time PCR. The results were used for determining the medium formulation in the following scaffold culture and bioreactor culture. The primers used in the present invention were shown as the following table:
The cells cultured in DMEM with 10% FBS were used as the control group.

mesenchymal stem cell [6] = assay: Immunohistochemical staining of aggrecan and type II collagen, bioreactor culture; type: cell-based, Wistar rats; settings: tri-copolymer scaffold, kartogenin
Procedure: The aggrecan and the type II collagen were characteristic proteins of the cartilage cells. The coculture structure was cultured in the dynamic bioreactor and the expressions of the proteins were presented by immunohistochemical staining. The samples culturing under the dynamic culture environment for 7, 14, and 21 days were washed in PBS, immersed in 2.5% formaldehyde for 30 minutes for immobilization. The samples were paraffin-embedded and sectioned into 5 μm. The immunohistochemistry was used to examine the characteristic protein of the cartilage cells which comprises the aggrecan and the type II collagen. After dewaxing by xylene and rehydration, the activity of endogenous peroxidase was cleaned by Hydrogen Peroxide Block reagent (ab80436, abcam, MA, USA). After antigen was repaired, non-specific background protein was bound by Protein Block (ab80436). The primary antibodies (rabbit anti-collagen-II (ab53047), rabbit anti-aggrecan (GTX86902)) of type II collagen and aggrecan were reacted with the tissue slices at 4° C. for 12 hr. After rinsing, the slices were bound with horseradish peroxidase (HRP) conjugated secondary antibody (goat anti-rabbit HRP conjugate). […] Last, the hematoxylin was incubated with the slices at room temperature for 30 minutes for counterstain.
In the present example, the cell-material complex sections were examined at 3 time points: Day 0, 7 and 21. […]

mesenchymal stem cell [7] = assay: Real-time PCR gene expression of mesenchymal stem cell in tri-copolymer scaffold with kartogenin, bioreactor culture; type: cell-based, Wistar rats
Text: as §2, §1
After culturing the tri-copolymer material, the mesenchymal stem cell and kartogenin in the bioreactor for 7, 14 and 21 days, mRNA genes expression were examined. In this example, the control group was the mesenchymal stem cell culturing […].
After culturing in the bioreactor for 7, 14, and 21 days, mRNA gene expression was examined. In this example, the control group was the mesenchymal stem cell culturing on the 2-dimensional plate for 1 day.

mesenchymal stem cell [8] = assay: Hematoxylin/Eosin histological examination of cell-material complex sections, bioreactor culture; type: cell-based, Wistar rats; settings: tri-copolymer scaffold
Procedure: After combining the gelatin-hyaluronan-chondroitin tri-copolymer and the stem cell, the coculture construct was seeded and transferred into the dynamic bioreactor for culturing. The morphology of the differentiated cells were stained with Hematoxylin/Eosin, and in the present example, the cell-material complex sections were examined at 3 time points: Day 0, 7 and 21.

[9] = day 7, control MSC on 2-dimensional plate 1 day
[10] = day 14, control MSC on 2-dimensional plate 1 day
[11] = day 21, control MSC on 2-dimensional plate 1 day

SMILES: O=C(O)c1ccccc1C(=O)Nc1ccc(-c2ccccc2)cc1 [kartogenin]
- accumulation of GAGs (Safranin-O staining) (mesenchymal stem cell [1]): accumulation of the GAGs was examined on the surface of the cell mass
- size of the cell mass (Safranin-O/Hochest staining) (mesenchymal stem cell [1]): about 100 μm
- cell condensation (live and death staining) (mesenchymal stem cell [2]): cell condensation was occurred
- proportion of cell death (live and death staining) (mesenchymal stem cell [2]): higher
- EC50 (hMSC): 100 nM
- early condensation and secretion of glycosaminoglycans (Alcian Blue stain) (mesenchymal stem cell [3]; 0.1 μM kartogenin): promoted the condensation phenomenon
- early condensation and secretion of glycosaminoglycans (Alcian Blue stain) (mesenchymal stem cell [3]; 1.0 μM kartogenin): promoted the condensation phenomenon
- secretion of GAGs into the medium (DMMB method) (mesenchymal stem cell [4]): increased
- TIMPs expression compared to the control group (mesenchymal stem cell [5]; 0.1 μM kartogenin, day 14): 0.91±0.04 fold
- Sox-9 gene expression relative to the control group (mesenchymal stem cell [5]; 1.0 μM kartogenin, 7 days): 1.66±0.27 fold
- Aggrecan gene expression (mesenchymal stem cell [5]; 1.0 μM kartogenin, 7 days, higher than 0.1 μM group (p<0.001)): 3.99±0.63 fold
- Aggrecan gene expression compared to the untreated group (mesenchymal stem cell [5]; 1.0 μM kartogenin, 14 days): 6.44±0.35 fold
- Sox-9 gene expression (mesenchymal stem cell [5]; 1.0 μM kartogenin, day 3 and day 7): up-regulated
- Sox-9 gene expression (mesenchymal stem cell [5]; 1.0 μM kartogenin, day 14): 0.56±0.04 fold
- TIMPs expression compared to the control group (mesenchymal stem cell [5]; 1.0 μM kartogenin, day 14): 1.63±0.249 fold
- type II collagen expression (immunohistochemical staining) (mesenchymal stem cell [6]; day 7 and 21, not distinct at day 0): positively stained
- aggrecan expression (immunohistochemical DAB staining) (mesenchymal stem cell [6]; day 21 compared with day 7): higher expression of aggrecan
- Aggrecan expression compared to the control group (mesenchymal stem cell [7]; day 7): 11.66±4.75 fold
- Col2a1 gene expression compared to the control group (mesenchymal stem cell [7]; day 7): 13.6±4.7 fold
- TIMPs expression (mesenchymal stem cell [7]; day 7): 5.60±1.24 fold
- Sox-9 expression (mesenchymal stem cell [7]; day 7, control MSC cultured 1 day): 2.51±0.90 fold
- Col1a1 expression compared to the control group (mesenchymal stem cell [7]; [9]): 13.19±2.90 fold
- Col10a1 expression (mesenchymal stem cell [7]; [9]): 39.23±9.39 fold
- Runx 2 expression compared to the control group (mesenchymal stem cell [7]; [9]): 8.60±3.55 fold
- Aggrecan expression compared to the control group (mesenchymal stem cell [7]; day 14): 12.33±6.3 fold
- Col2a1 gene expression compared to the control group (mesenchymal stem cell [7]; day 14): 28.26±11.64 fold
- TIMPs expression (mesenchymal stem cell [7]; day 14): 5.79±5.25 fold
- Sox-9 expression (mesenchymal stem cell [7]; day 14, control MSC cultured 1 day): 3.91±2.12 fold
- Col1a1 expression compared to the control group (mesenchymal stem cell [7]; [10]): 17.26±1.38 fold
- Col10a1 expression (mesenchymal stem cell [7]; [10]): 36.08±26.00 fold
- Runx 2 expression compared to the control group (mesenchymal stem cell [7]; [10]): 9.89±3.82 fold
- Aggrecan expression compared to the control group (mesenchymal stem cell [7]; day 21): 9.74±3.83 fold
- Col2a1 gene expression compared to the control group (mesenchymal stem cell [7]; day 21): 40.32±9.13 fold
- TIMPs expression (mesenchymal stem cell [7]; day 21): 3.94±1.08 fold
- Sox-9 expression (mesenchymal stem cell [7]; day 21, control MSC cultured 1 day): 3.06±0.99 fold
- Col1a1 expression compared to the control group (mesenchymal stem cell [7]; [11]): 13.14±6.07 fold
- Col10a1 expression (mesenchymal stem cell [7]; [11]): 5.56±5.23 fold
- Runx 2 expression compared to the control group (mesenchymal stem cell [7]; [11]): 7.35±1.96 fold
- cell condensation (Hematoxylin/Eosin section) (mesenchymal stem cell [8]; kartogenin induction, day 7): cell condensation was presence
- lacunae structure (Hematoxylin/Eosin section) (mesenchymal stem cell [8]; kartogenin, day 21): lacunae like structure was examined
- size of the cell mass (Hematoxylin/Eosin section) (mesenchymal stem cell [8]; kartogenin, day 21): about 100 μm
